Experimental data reported in patent US7368431B2, “Polypeptide, the conjugate thereof with doxorubicine and a pharmaceutical composition based thereon” (Zakrytoe Aktsionernoe Obschestvo “Russkie Biotechnologll”, priority 2001, dated 2008).
Peptide text beside a SMILES is read from it. * marks the point of attachment. X1 = COc1cccc2c1C(=O)c1c(O)c3c(c(O)c1C2=O)C[C@@](O)(C(=O)CO)C[C@@H]3O[C@H]1C[C@H](N=CCCCC=N[C@@H](CCSC)C(=O)*)[C@H](O)[C@H](C)O1

Key:
[1] = system: line NIH 3T3 murine fibroblast cells; assay: Proliferative activity, 3H-thymidine incorporation; assay type: cell-based; conditions: NIH 3T3 fibroblasts, 0.1-1000 ng/ml, compared with known polypeptide I (EGF fragment), FIG. 1
Experimental: Proliferative activity of the polypeptide was tested on line NIH 3T3 murine fibroplat cells. The rate of DNA biosynthesis was judged from the amount of ^3H-timidine incorporated in the […] cell fraction. Line NIH 3T3 murine fibroblast cells were cultivated in plastic flasks in the RPM1 medium (SIGMA), which contained 10% of fetal bovine serum (SIGMA), 100 U/mb of penicillin and 100 μg/ml of streptomycin, in a wet environment of 5% CO2 at 37° C. Proliferation of synchronized line NIH 3T3 fibroblasts was induced by adding to the cellular suspension the proposed polypeptide at a different concentration (0.1-1000 ng/ml). The fibroblasts were cultivated in 96-well plates in the complete medium, 200-800 cells in each well containing 200 μl of the medium. ^3H-thymidine (1 μCi/well, […]) was added 2 hours prior to the end of the incubation period. Radioactivity was measured by a scintillation counter (RACKBETA, LKB) with the use of a toluene-based scintillation fluid ZhS-8. The rate of DNA biosynthesis was expressed as the stimulation index (stimulated-to-control cell ratio) calculated by the formula: I=N/No×100%, where I is the stimulation index, N is the number of EGF-stimulated cells, and No is the number of control cells. […]

[2] = system: human breast carcinoma cell line MCF-7^wt; assay: Cytotoxicity, MTT cell survival; assay type: cell-based; conditions: 72 hours
Experimental: (§1) Efficacy of the conjugate was studied on the following cell lines: human breast carcinoma cell line MCF-7^wt and resistant human breast carcinoma cell line MCF-7^AdrR; human ovary carcinoma cell line SKOV3 and resistant human ovary carcinoma cell line SKVLB; and murine melanoma cell line B16.
(§2) Study protocol was common for all test runs. The cells cultivated in plastic flasks (COSTAR) in the RPMI medium (SIGMA), which contained 10% of fetal bovine serum (SIGMA), 100 U/ml of penicillin and 100 μg/ml of streptomycin, in a wet environment of 5% CO2 at 37° C., were inoculated in 96-well plates (Costar), 10000 in each well, and studied drugs were then added at different concentrations. After that, the cells were incubated for 72 hours. Two-four hours prior to the end of the incubation period, 50 μl (1 mg/ml) of the MTT solution (3-[4,5-dimethylthiazole-2yl]-2,5-diphenyltetrazole bromide (SIGMA) in the culture medium were added in each well. After the development of coloration, the medium was removed, formazan crystals were dissolved in 150 μl of dimethyl sulfoxide, and the absorbance was measured by spectrophotometry at 540 nm. Survival rates of the cells exposed to free and conjugated DR were determined in percent relative to the survival rate of controls taken as 100%.

[3] = system: human ovary carcinoma cell line SKOV3; assay: Cytotoxicity, MTT cell survival; assay type: cell-based
Experimental: as §1, §2

[4] = system: murine melanoma cell line B16; assay: Cytotoxicity, MTT cell survival; assay type: cell-based; conditions: B16, 72 hours
Experimental: as §1, §2

[5] = system: resistant human breast carcinoma cell line MCF-7^AdrR; assay: Cytotoxicity, MTT cell survival; assay type: cell-based; conditions: 72 hours
Experimental: as §1, §2

[6] = system: resistant human ovary carcinoma cell line SKVLB; assay: Cytotoxicity, MTT cell survival; assay type: cell-based; conditions: SKVLB^AdrR, 72 hours
Experimental: as §1, §2

[7] = system: subcutaneously implanted line B16 cancer cells; assay: Murine implanted tumor model, intravenous administration; assay type: in vivo; conditions: mice, s.c. B16, i.v. 0.2 mg/kg of doxorubicin once every four days; for Increase in ADL, %: three injections, relative to controls
Experimental: The medicines were administered at a dose of 0.2 mg/kg of doxorubicin once every four days, three injections in total, starting from day 3 after the cancer implantation.

[8] = Homo sapiens, Breast carcinoma cell

| Molecule | proliferative effect (incorporated 3H-thymidine, stimulation index) [1] | IC50 [2, 8] | IC50 ([3]; Homo sapiens, SK-OV-3, SKOV3, 72 hours) | IC50 ([4]; Mus musculus) | IC50 [5, 8] | IC50 ([6]; Homo sapiens) | ADL (average duration of life) ([7]; three injections from day 3) | Increase in ADL, % [7] | IC50 [2] | IC50 ([3]; SKOV3, 72 hours) | IC50 [4] | IC50 [5] | IC50 [6] | onset of tumors and their growth ([7]; three injections from day 3, compared with free DR) | Increase in ADL, % ([7]; listed as Conjugate, 0.2 mg/kg) | Increase in ADL, % ([7]; listed as conjugate, 0.2 mg/kg) |
| --- | --- | --- | --- | --- | --- | --- | --- | --- | --- | --- | --- | --- | --- | --- | --- | --- |
| NH2-Met-Tyr-Ile-Glu-Ala-Leu-Asp-Ser-Tyr-Ala-Cys-COOH (H-MYIEALDSYAC-OH) [proposed polypeptide, synthetic polypeptide H2N-…-COOH similar to EGF fragment 21 to 31, Lys replaced with Ser] | more pronounced dose-dependent proliferative effect |  |  |  |  |  |  |  |  |  |  |  |  |  |  |  |
| COc1cccc2c1C(=O)c1c(O)c3c(c(O)c1C2=O)C[C@@](O)(C(=O)CO)C[C@@H]3O[C@H]1C[C@H](N)[C@H](O)[C@H](C)O1 [DR, doxorubicin] |  | 58.6 nM | 209 nM | 35 nM | 3700 nM | 2010 nM | 23.6 ± 4.0 days | −24.8% |  |  |  |  |  |  |  |  |
| CC[C@H](C)[C@H](NC(=O)[C@H](Cc1ccc(O)cc1)NC(=O)[C@H](CCSC)N=CCCCC=N[C@H]1C[C@H](O[C@H]2C[C@](O)(C(=O)CO)Cc3c(O)c4c(c(O)c32)C(=O)c2c(OC)cccc2C4=O)O[C@@H](C)[C@H]1O)C(=O)N[C@@H](CCC(=O)O)C(=O)N[C@@H](C)C(=O)N[C@@H](CC(C)C)C(=O)N[C@@H](CC(=O)O)C(=O)N[C@@H](CO)C(=O)N[C@@H](Cc1ccc(O)cc1)C(=O)N[C@@H](C)C(=O)N[C@@H](CS)C(=O)O [Polypeptide-DR conjugate] (X1-YIEALDSYAC-OH) |  |  |  |  |  |  | 46.6 ± 5.7 days |  | 1.3 nM | 22 nM | 1.1 nM | 150 nM | 70 nM | considerable delay in the onset of tumors and slowed their growth | 48.5% | 46% |
